Usually Ki stands for the equilibrium dissociation constant of an inhibitor or competing ligand from its target. Higher therefore signals lower affinity.

The target of this test is D(2) dopamine receptor (Rattus norvegicus, UniProt P61169). As to the kind of experiment: Tested for Competitive binding inhibition of [3H]spiperone to Dopamine receptor D2 in rat striatal membrane. Format: cell membranes.
D(2) dopamine receptor, sequence (P61169 whole entry): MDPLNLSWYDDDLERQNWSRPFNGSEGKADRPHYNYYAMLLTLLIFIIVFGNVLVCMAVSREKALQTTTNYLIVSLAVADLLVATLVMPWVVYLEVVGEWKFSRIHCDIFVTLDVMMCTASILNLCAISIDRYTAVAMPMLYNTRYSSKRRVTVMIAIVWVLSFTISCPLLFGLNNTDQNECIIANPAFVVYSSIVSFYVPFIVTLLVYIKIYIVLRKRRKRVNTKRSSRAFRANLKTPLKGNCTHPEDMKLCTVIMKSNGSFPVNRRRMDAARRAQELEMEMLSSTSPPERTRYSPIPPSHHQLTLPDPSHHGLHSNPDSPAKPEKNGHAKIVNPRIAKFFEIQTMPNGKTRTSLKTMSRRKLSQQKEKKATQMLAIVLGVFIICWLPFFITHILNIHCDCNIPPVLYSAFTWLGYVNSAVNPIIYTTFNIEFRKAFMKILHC
`C[N+](C)(C)NCCN1c2ccccc2Sc2ccc(Cl)cc21` yielded an inhibition constant (Ki) of 4.88 µM.
For `C[N+](C)(N)CCCN1c2ccccc2Sc2ccc(Cl)cc21`, affinity was put at a Ki of 0.82 µM.
For `C[N+](C)(C)CCCN1c2ccccc2Sc2ccc(Cl)cc21` the value was 8.57 µM.

The values are drawn from ChEMBL document CHEMBL1126502, “Enhancement of binding of quaternary ammonium derivatives of chlorpromaxine to dopamine D-2 receptors by the addition of a H-bonding group” (Bioorg Med Chem Lett, 1993).
